Counter-ions that a name gives are not always drawn.
What was measured:
[1] = system: analgesic effect of morphine; assay: antagonism to the analgesic effect of morphine, hot-plate analgesia test (P. A. Janssen et al.); assay type: in vivo, mice; conditions: for Antagonism to the analgesic effect ID50a / ED50: female mice, antagonist s.c. 5 min before morphine 24 mg/kg s.c.; for ED50: read-out: Antagonism to the analgesic effect ID50a
Description: (§1) The antagonism to the peripheral action of opiates is assessed on the basis of the percent inhibition of the analgesic and of the constipating effects of morphine. The ratio between the dose which inhibits by 50% the analgesic effect of morphine and the dose which inhibits by 50% its constipating effect represents the index of the peripheral activity.
(§2) The antagonism to the analgesic effect of morphine was assessed by the hot-plate analgesia test according to P. A. Janssen et al. (J. Pharm. Pharmacol. 1957, 9, 381-400) by using fasting (18 hours) female mice of 20-22 g. Morphine was injected subcutaneously (24 mg/kg) thirty minutes before the beginning of the test. The antagonist was injected subcutaneously 5 minutes before the morphine. The antagonistic activity was expressed as ID50 of the morphine antinociceptive effect, calculated on the basis of the log dose reaction time regression of the animals treated with different doses of the products under testing.
(§3) The doses which inhibit by 50% the analgesic effect (ID50a) and the constipating effect (ID50c) have been extrapolated from least square log dose-response line by applying the analysis of the variance by linear regression.

[2] = system: constipating effect of morphine; assay: antagonism to the morphine constipating effect, charcoal meal test (A. F. Green, slightly modified); assay type: in vivo, mice; conditions: for Antagonism to the constipating effect ID50c / ED50: charcoal meal, female mice, antagonist s.c. 5 min before morphine 12 mg/kg s.c.; for ED50: Mus musculus, sc, read-out: Antagonism to the constipating effect ID50c
Description: as §1
(§4) The antagonism to the morphine constipating effect of the methyl levallorphanium salts of the present invention was assessed according to the test described by A. F. Green (Br. J. Pharm. Chemother. 1959, 14, 26-34), slightly modified.
(§5) Three groups of fasting (20 hours) female mice of about 20 g were used. To a control group, a meal consisting of 0.2 ml of a mixture of 5% arabic gum (6 ml), flour (2 g) and charcoal (1 g) was administered by oral route. The second group was treated with 12 mg/kg of morphine s.c. and, immediately afterwards, with the above charcoal meal. […] After 30 minutes, the animals were sacrificed to assess the portion of intestine through which the charcoal had passed, expressed as percent of the total length of the small intestine.
as §3

[3] = system: analgesic and constipating effects of morphine; assay: index of peripheral activity (hot-plate analgesia test versus charcoal meal constipation test); assay type: in vivo, mice; conditions: for ID50a/ID50c: index of the peripheral activity; for peripheral selectivity (analgesic versus constipating effect), in words: conditions of Table I
Description: as §1, §2, §4, §5, §3

opiate = conditions: reported in earlier literature or filings; cited from earlier work

Row | Structure (SMILES) | Antagonism to the analgesic effect ID50a [1] [mg/kg] | Antagonism to the constipating effect ID50c [2] [mg/kg] | ID50a/ID50c [3] | inhibition at 30 mg/kg ([1]; Mus musculus, sc, at 30 mg/kg s.c., mice, read-out: inhib. of the analgesic effect of morphine) [%] | inhibition at 60 mg/kg ([1]; Mus musculus, sc, at 60 mg/kg s.c., mice, read-out: inhib. of the analgesic effect of morphine) [%] | ED50 ([1]; Mus musculus, sc) [mg/kg] | ED50 [2] [mg/kg] | peripheral opiate antagonism, in words ([2]; conditions of Table I) | peripheral selectivity (analgesic versus constipating effect), in words [3] | peripheral antagonistic activity / opiate antagonistic activity (opiate)
1 | C=CC[N+]1(C)CC[C@]23CCCC[C@H]2[C@H]1Cc1ccc(O)cc13 (single isomer, unassigned) [methyllevallorphanium mesilate] | > 60 | 7.4 | > 8 | – | – | – | – | – | – | –
2 | C=CC[N+]1(C)CC[C@]23CCCC[C@H]2[C@H]1Cc1ccc(O)cc13 (single isomer, unassigned) [methyllevallorphanium methylsulfate] | – | – | ~ 12 | 41 | 49 | ~60 | 4.9 | – | – | –
3 | C=CC[N+]1(CC=C)CC[C@]23CCCC[C@H]2[C@H]1Cc1ccc(O)cc13 [levallorphan bromoallylate] | – | – | 0.97 | – | – | – | 15.7 | good opiate peripheral antagonist | the ratio between its ID50a and ID50c is by far lower than that of the compounds of the present invention | peripheral narcotic antagonist
4 | C=CCN1CC[C@]23CCCC[C@H]2[C@H]1Cc1ccc(O)cc13 [levallorphan tartrate] | – | – | 0.01 | – | – | 0.03 | 5.5 | – | more active as antagonists of the analgesic effect than as antagonists of the constipating effect | –
5 | C=CC[N+]1(C)CC[C@]23c4c5ccc(O)c4O[C@H]2C(=O)CC[C@@]3(O)[C@H]1C5.COS(=O)(=O)[O-] (stereo partly drawn) [naloxone sulfomethylate] | 1.6 | 5.8 | 0.27 | – | – | – | – | – | – | –
6 | C=CCN1CC[C@]23c4c5ccc(O)c4O[C@H]2C(=O)CC[C@@]3(O)[C@H]1C5 [naloxone, N-allylnoroxymorphone] | – | – | 0.08 | – | – | 0.06 | 0.75 | – | more active as antagonists of the analgesic effect than as antagonists of the constipating effect | –

Reference: patent US4735947A, “Methyllevallorphanium salts having peripheral opiate antagonistic activity” (Sanofi, priority 1983, dated 1988)
